Laboratory results as given in ChEMBL document CHEMBL1201862, “PubChem BioAssay data set” (2004).
Where “and” joins values, the source holds several entries; their conditions need not be identical. Equal entries are not always repeated.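 Growth conditions: 96-well plates. Treatment: test compound, 48 hours, 5 concentrations. Analysis: linear interpolation between bracketing concentrations; unreached endpoints set to highest concentration. GI50: concentration for 50% inhibition of growth.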 Calls of active or inactive are those of the source. Rule as the data show it: active = GI50 up to about 1.1 µM and inactive = higher.

Key:
Assay in all cases: growth of human tumour cells (NCI), 48 h
LOX IMVI = tested on: LOX IMVI
NCI-H460 = tested on: NCI-H460
OVCAR-8 = tested on: OVCAR-8
OVCAR-3 = tested on: OVCAR-3
M14 = tested on: M14
KM12 = tested on: KM12
COLO 205 = tested on: COLO 205
EKVX = tested on: EKVX
UACC-62 = tested on: UACC-62
SNB-75 = tested on: SNB-75
Hs-578T = tested on: Hs-578T
RPMI-8226 = tested on: RPMI-8226
MCF7 = tested on: MCF7
BT-549 = tested on: BT-549
SR = tested on: SR
T47D = tested on: T47D
OVCAR-4 = tested on: OVCAR-4
HCT-116 = tested on: HCT-116
HL-60 = tested on: HL-60

Compound: O=C(O)c1nnsc1COCc1ccccc1
- GI50 (LOX IMVI): > 100 µM (inactive)
- GI50 (NCI-H460): > 100 µM (inactive)
- GI50 (OVCAR-8): > 100 µM (inactive)
- GI50 (OVCAR-3): > 100 µM (inactive)
- GI50 (M14): > 100 µM (inactive)
- GI50 (KM12): > 100 µM (inactive)
- GI50 (COLO 205): > 100 µM (inactive)
- GI50 (EKVX): > 100 µM (inactive)
- GI50 (UACC-62): > 100 µM (inactive)
- GI50 (SNB-75): > 100 µM (inactive)
- GI50 (Hs-578T): > 100 µM (inactive)
- GI50 (RPMI-8226): > 100 µM (inactive)
- GI50 (MCF7): > 100 µM (inactive)
- GI50 (BT-549): > 100 µM (inactive)
- GI50 (SR): > 100 µM (inactive)
- GI50 (T47D): > 100 µM (inactive)
- GI50 (OVCAR-4): > 100 µM (inactive)
- GI50 (HCT-116): > 100 µM (inactive)

Compound: CCC(C)C1=C(O)[N+]2([O-])Oc3ccc(-c4c(O)c(O)c(-c5ccc(OC(C)=O)cc5)c(OC(C)=O)c4OC(C)=O)cc3OC2(C(C)CC)C(=O)N1O (centres undefined)
- GI50 (LOX IMVI): 38.3 µM (inactive) and 37.2 µM (inactive)
- GI50 (NCI-H460): > 50 µM (inactive)
- GI50 (HL-60): 24 µM (inactive) and 27.4 µM (inactive)
- GI50 (OVCAR-8): > 50 µM (inactive)
- GI50 (OVCAR-3): > 50 µM (inactive)
- GI50 (M14): > 50 µM (inactive)
- GI50 (KM12): > 50 µM (inactive)
- GI50 (COLO 205): > 50 µM (inactive)
- GI50 (EKVX): > 50 µM (inactive)
- GI50 (UACC-62): > 50 µM (inactive) and 31.3 µM (inactive)
- GI50 (Hs-578T): > 50 µM (inactive)
- GI50 (RPMI-8226): > 50 µM (inactive) and 33.8 µM (inactive)
- GI50 (MCF7): > 50 µM (inactive)
- GI50 (BT-549): 45.6 µM (inactive)
- GI50 (SR): 22.3 µM (inactive) and 13.9 µM (inactive)
- GI50 (T47D): 42.7 µM (inactive)
- GI50 (OVCAR-4): 12.9 µM (inactive) and 14.9 µM (inactive)

Compound: COc1cc(C2SCC(=O)N2c2ccc(Cl)cc2)cc(I)c1O (centres undefined)
- GI50 (NCI-H460): 2.74 µM (inactive)
- GI50 (HL-60): 15.7 µM (inactive)
- GI50 (OVCAR-8): > 100 µM (inactive)
- GI50 (OVCAR-3): 33.8 µM (inactive)
- GI50 (M14): 4.86 µM (inactive)
- GI50 (KM12): 7.01 µM (inactive)
- GI50 (COLO 205): 2.64 µM (inactive)
- GI50 (EKVX): 8.13 µM (inactive)
- GI50 (UACC-62): 0.305 µM (active)
- GI50 (SNB-75): > 100 µM (inactive)
- GI50 (Hs-578T): 97.1 µM (inactive)
- GI50 (RPMI-8226): 5.85 µM (inactive)
- GI50 (MCF7): 4.75 µM (inactive)
- GI50 (BT-549): 48.8 µM (inactive)
- GI50 (SR): 3.53 µM (inactive)
- GI50 (T47D): 5.45 µM (inactive)
- GI50 (OVCAR-4): 3.37 µM (inactive)
- GI50 (HCT-116): 18.5 µM (inactive)

Compound: CC(=O)N1CCN(CCCCN2c3ccccc3Sc3cc(N=[N+]=[N-])ccc32)CC1
- GI50 (LOX IMVI): 14.9 µM (inactive)
- GI50 (NCI-H460): 14.1 µM (inactive)
- GI50 (HL-60): 8.87 µM (inactive)
- GI50 (OVCAR-8): 15.4 µM (inactive)
- GI50 (OVCAR-3): 12.8 µM (inactive)
- GI50 (KM12): 13.5 µM (inactive)
- GI50 (COLO 205): 14.2 µM (inactive)
- GI50 (EKVX): 18.2 µM (inactive)
- GI50 (UACC-62): 2.69 µM (inactive)
- GI50 (SNB-75): 13 µM (inactive)
- GI50 (Hs-578T): 15 µM (inactive)
- GI50 (RPMI-8226): 10.5 µM (inactive)
- GI50 (MCF7): 14 µM (inactive)
- GI50 (BT-549): 17.3 µM (inactive)
- GI50 (SR): 9.06 µM (inactive)
- GI50 (T47D): 3.65 µM (inactive)
- GI50 (HCT-116): 13.8 µM (inactive)

Compound: CC(=O)N1N=C(c2c(O)ccc3ccccc23)CC1c1ccc(Cl)cc1 (centres undefined)
- GI50 (NCI-H460): 15.1 µM (inactive)
- GI50 (OVCAR-8): 26.9 µM (inactive)
- GI50 (OVCAR-3): 14.1 µM (inactive)
- GI50 (M14): 14.2 µM (inactive)
- GI50 (KM12): 13.7 µM (inactive)
- GI50 (COLO 205): 19.9 µM (inactive)
- GI50 (UACC-62): 14.1 µM (inactive)
- GI50 (SNB-75): 22 µM (inactive)
- GI50 (Hs-578T): 17.1 µM (inactive)
- GI50 (RPMI-8226): 10.5 µM (inactive)
- GI50 (MCF7): 15.5 µM (inactive)
- GI50 (BT-549): 21 µM (inactive)
- GI50 (SR): 6.35 µM (inactive)
- GI50 (T47D): 37.5 µM (inactive)
- GI50 (OVCAR-4): 19.6 µM (inactive)
- GI50 (HCT-116): 15 µM (inactive)

Compound: COc1cccc2c1C(=O)c1ccc3cc(CCl)cc(O)c3c1C2=O
- GI50 (LOX IMVI): 0.158 µM (active)
- GI50 (NCI-H460): 0.196 µM (active)
- GI50 (HL-60): 0.21 µM (active)
- GI50 (OVCAR-8): 0.228 µM (active)
- GI50 (OVCAR-3): 0.243 µM (active)
- GI50 (M14): 0.229 µM (active)
- GI50 (KM12): 0.0605 µM (active)
- GI50 (COLO 205): 0.203 µM (active)
- GI50 (EKVX): 1.09 µM (active)
- GI50 (UACC-62): 0.202 µM (active)
- GI50 (SNB-75): 0.94 µM (active)
- GI50 (Hs-578T): 0.362 µM (active)
- GI50 (RPMI-8226): 0.182 µM (active)
- GI50 (MCF7): 0.289 µM (active)
- GI50 (BT-549): 0.305 µM (active)
- GI50 (SR): 0.04 µM (active)
- GI50 (T47D): 1.2 µM (inactive)
- GI50 (HCT-116): 0.1 µM (active)

Compound: O=C1CC[C@@]23CC(=O)O[C@@H]2CCCC3C1 (some centres undefined)
- GI50 (LOX IMVI): > 100 µM (inactive)
- GI50 (NCI-H460): > 100 µM (inactive)
- GI50 (HL-60): > 100 µM (inactive)
- GI50 (OVCAR-8): > 100 µM (inactive)
- GI50 (M14): > 100 µM (inactive)
- GI50 (KM12): > 100 µM (inactive)
- GI50 (COLO 205): > 100 µM (inactive)
- GI50 (EKVX): > 100 µM (inactive)
- GI50 (UACC-62): > 100 µM (inactive)
- GI50 (SNB-75): > 100 µM (inactive)
- GI50 (Hs-578T): > 100 µM (inactive)
- GI50 (RPMI-8226): > 100 µM (inactive)
- GI50 (MCF7): > 100 µM (inactive)
- GI50 (BT-549): > 100 µM (inactive)
- GI50 (SR): > 100 µM (inactive)
- GI50 (T47D): > 100 µM (inactive)
- GI50 (OVCAR-4): > 100 µM (inactive)
- GI50 (HCT-116): > 100 µM (inactive)

Compound: O=C1C/C(=C\O)C(=O)c2ccccc2N1
- GI50 (LOX IMVI): > 100 µM (inactive)
- GI50 (NCI-H460): > 100 µM (inactive)
- GI50 (HL-60): > 100 µM (inactive)
- GI50 (OVCAR-8): > 100 µM (inactive)
- GI50 (OVCAR-3): > 100 µM (inactive)
- GI50 (M14): > 100 µM (inactive)
- GI50 (KM12): > 100 µM (inactive)
- GI50 (COLO 205): > 100 µM (inactive)
- GI50 (EKVX): > 100 µM (inactive)
- GI50 (UACC-62): > 100 µM (inactive)
- GI50 (Hs-578T): > 100 µM (inactive)
- GI50 (MCF7): > 100 µM (inactive)
- GI50 (BT-549): > 100 µM (inactive)
- GI50 (SR): > 100 µM (inactive)
- GI50 (T47D): 61.8 µM (inactive)
- GI50 (OVCAR-4): > 100 µM (inactive)
- GI50 (HCT-116): > 100 µM (inactive)
